Legend:
[1] = test system: ICR mice; test: Forced swimming model in mice; format: in vivo; settings: for Mean (immobility, %): floating time/240 s; for immobility time during the latter four minutes compared with that of the model group: forced swimming, ICR mice
Method in brief: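 Male ICR mice (25-35 g), 12 per group, dosed intragastrically at brain Tmax with 10 mg/kg or 5 mg/kg p.o. in 0.5% CMC-Na + 1% Tween 80. Forced swim 0.5-1 h post-dose for 6 min in 25-26° C. water, 18 cm deep. Immobility over last 4 min, given as floating time percentage of 240 s.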

[2] = molecular target: GABA-A receptor; test: 35S-TBPS binding assay (GABAA receptor binding ability assay); design: species or system Sprague-Dawley rat; settings: rat cerebral cortex cell membrane, 5 μM GABA, 2 nM 35S-TBPS; read-out: IC50 on inhibiting the TBPS binding activity, 35S-TBPS bindng assay
Method in brief: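 Male Sprague-Dawley rat cerebral cortex membranes in PBS, preincubated with compound (1% DMSO, 8-point 3-fold series) 5 min at 25° C, then GABA 5 μM final 5 min, then 2 nM 35S-TBPS for 20 h at 4° C. Bound radioactivity filtered on PEI-treated GF/C and counted. % inhibition relative to DMSO and 10 μM P026-2 controls; IC50 from 4-parameter fit.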

SMILES	Mean (immobility, %) ([1]; dose 10 mpk p.o.) [%]	immobility time during the latter four minutes compared with that of the model group [1]	IC50 [2] [nM]	Mean (immobility, s) ([1]; dose 10 mpk p.o., latter four minutes of 6 min swim) [s]
C[C@@]1(O)CC[C@H]2[C@H](CC[C@@H]3[C@@H]2CC[C@@]2(C)[C@H]3[C@@H]3C[C@@H]3[C@@H]2C(=O)Cn2ccc(C#N)n2)C1 [Example 2, 1-(2-((2R,4aS,4bR,6aS,7S,7aS,8aR,8bR,8cR,10aR)-2-Hydroxy-2,6a-dimethyloctadecahydrocyclopropa[4,5]cyclopenta[1,2-a]phenanthren-7-yl)-2-oxoethyl)-1H-pyrazole-3-carbonitrile]	28.50	very significantly different	14.9	–
C[C@@H]1C[C@H](C(=O)Cn2ccc(C#N)n2)[C@@]2(C)CC[C@H]3[C@@H](CC[C@@H]4C[C@](C)(O)CC[C@@H]43)[C@H]12 [Example 40, 1-(2-((3R,5R,8R,9R,10S,13S,14S,15R,17S)-3-Hydroxy-3,13,15-trimethylhexadecahydro-1H-cyclopenta[a]phenanthren-17-yl)-2-oxoethyl)-1H-pyrazole-3-carbonitrile]	35.30	very significantly different	8.2	84.90

Reference: patent publication US12590118B2, “Salt and crystal form of steroid derivative regulator” (Shanghai Hansoh Biomedical Co., Ltd., priority 2019, dated 2026)
